Data set [1] can be described thus: Solubility of the acid addition salts. Particulars: for water solubility: statement in words, background art.
A short description of another data set: Oral absorption. In kind it is in vivo. Particulars: statement in words, background art.
Data set [2] is described as follows: Powder X-ray diffraction (degree of crystallinity). In kind it is physicochemical. An excerpt: (§1) A powder X-ray diffraction pattern of 2-[4-[2-(benzimidazol-2-ylthio)ethyl]piperazin-1-yl]-N-[2,4-bis(methylthio)-6-methyl-3-pyridyl]acetamide monohydrochloride 0.9-water adduct is illustrated in FIG. 1, and the results of its TG (thermogravimetric analysis)-DSC (differential scanning calorimetry) measurements are shown in FIG. 2. Further, a powder X-ray diffraction pattern of 2-[4-[2-(benzimidazol-2-ylthio)ethyl]piperazin-1-yl]-N-[2,4-bis(methylthio)-6-methyl-3-pyridyl]acetamide tetrahydrochloride 2-water adduct is illustrated in FIG. 3, and the results of its TG-DSC measurements are shown in FIG. 4. A powder X-ray diffraction pattern of 2-[4-[2-(benzimidazol-2-ylthio)ethyl]piperazin-1-yl]-N-[2,4-bis(methylthio)-6-methyl-3-pyridyl]acetamide disulfate 1.5-water adduct is illustrated in FIG. 5, and the results of its TG-DSC measurements are shown in FIG. 6. A powder X-ray diffraction pattern of 2-[4-[2-(benzimidazol-2-ylthio)ethyl]piperazin-1-yl]-N-[2,4-bis(methylthio)-6-methyl-3-pyridyl]acetamide monosulfate 4-water adduct is illustrated in FIG. 7, and the results of its TG-DSC measurements are shown in FIG. 8. A powder X-ray diffraction pattern of 2-[4-[2-(benzimidazol-2-ylthio)ethyl]piperazin-1-yl]-N-[2,4-bis(methylthio)-6-methyl-3-pyridyl]acetamide monosulfate is illustrated in FIG. 9, and the results of its TG-DSC measurements are shown in FIG. 10. A powder X-ray diffraction pattern of 2-[4-[2-(benzimidazol-2-ylthio)ethyl]piperazin-1-yl]-N-[2,4-bis(methylthio)-6-methyl-3-pyridyl]acetamide dimaleate is illustrated in FIG. 11, and the results of its TG-DSC measurements are shown in FIG. 12.

A further data set in a line: pH of aqueous solution. In kind it is physicochemical.
Data set [3] can be described thus: Hygroscopicity (weight change on storage at 25° C. and 83% relative humidity). The data set is classed as physicochemical. Particulars: weight change after 4 days at 25° C. and 83% relative humidity. As for the experimental part: (§2) A weight change of each acid addition salt was measured after storing it for 4 days under conditions of 25° C. and 83% relative humidity. • TG: Thermogravimetric Analysis • DSC: Differential Scanning Calorimetry

Data set [4] is described as follows: Thermal stability (HPLC purity after storage relative to before storage). In kind it is physicochemical. The method, then: (Note) Thermal Stability:
The purity of each acid addition salt of the polyacidic basic compound stored at 80° C. for 10 days was determined by HPLC measurement relative to its purity before the storage with the proviso that the disulfate 1.5-water adduct and the dimaleate were stored at 60° C. for 7 days before their storage at 80° C. for 10 days.

Data set [5] is described as follows: TG (thermogravimetric analysis). Particulars: weight change on heating. In kind it is physicochemical.
Text: as §1, §2

Where [6] appears, read: stored at 60° C. for 7 days before storage at 80° C. for 10 days.
The mark [7] stands for this setting: listed as 2-[4-[2-(benzimidazol-2-ylthio)ethyl]piperazin-1-yl]-N-[2,4-bis(methylthio)-6-me.
The mark [8] stands for this setting: listed as tetrahydrochloride 2-water adduct.

The text below walks through data of patent publication US7750150B2, “Process for producing acid adduct salt of polyacidic base compound” (Kowa Co., Ltd., priority 2003, dated 2010).

Where two headings read alike, the source gives them in different places. Some results are limits rather than exact numbers.

Take `Cc1cc(OCC(F)(F)F)c(NC(=O)CN2CCN(CCSc3nc4cc(F)c(F)cc4[nH]3)CC2)c(OCC(F)(F)F)n1.Cl`: the melting point lay within 186 to 187 °C.
As to `CSc1cc(C)nc(SC)c1NC(=O)CN1CCN(CCSc2nc3ccccc3[nH]2)CC1` [2-[4-[2-(benzimidazol-2-ylthio)ethyl]piperazin-1-yl]-N-[2,4-bis(methylthio)-6-methyl-3-pyridyl]acetamide], the water solubility entry in data set [1] is reported as “too low”. Further, the oral absorption result in the data set “Oral absorption” is recorded as “little well”.
Take `CSc1cc(C)nc(SC)c1NC(=O)CN1CCN(CCSc2nc3ccccc3[nH]2)CC1.O=C(O)/C=C\C(=O)O.O=C(O)/C=C\C(=O)O` [Dimaleate, 2-[4-[2-(benzimidazol-2-ylthio)ethyl]piperazin-1-yl]-N-[2,4-bis(methylthio)-6-methyl-3-pyridyl]acetamide dimaleate]: in [2], the “Powder X-ray” value was “Low”. Further, in the data set “physchem”, the Solubility came to 15 mg/mL. Moreover, the “pH of 1% aq. Solution” value in “pH of aqueous solution” was 2.62. The molecule further displayed a Hygroscopicity in [3] of 2%. Moreover, the Thermal stability in [4] (setting [6]) stood at 93.1%.
Regarding `CSc1cc(C)nc(SC)c1NC(=O)CN1CCN(CCSc2nc3ccccc3[nH]2)CC1.CSc1cc(C)nc(SC)c1NC(=O)CN1CCN(CCSc2nc3ccccc3[nH]2)CC1.O.O.O.O=S(=O)(O)O.O=S(=O)(O)O.O=S(=O)(O)O.O=S(=O)(O)O` [Disulfate 1.5-water adduct, 2-[4-[2-(benzimidazol-2-ylthio)ethyl]piperazin-1-yl]-N-[2,4-bis(methylthio)-6-methyl-3-pyridyl]acetamide disulfate 1.5-water adduct], the “Powder X-ray” value in data set [2] is reported as “Low”. The TG result in data set [5] is on record as “No change until”. Also, the Solubility in data set [1] is greater than 1000 mg/mL. Also, the “pH of 1% aq. Solution” value in the data set “pH of aqueous solution” came to 2.00. The Hygroscopicity in [3] is recorded as 10%. The molecule also yielded a Thermal stability in data set [4] (setting [6]) of 99.6%.
In the case of `CSc1cc(C)nc(SC)c1NC(=O)CN1CCN(CCSc2nc3ccccc3[nH]2)CC1.Cl.O` [Monohydrochloride 0.9-water adduct, 2-[4-[2-(benzimidazol-2-ylthio)ethyl]piperazin-1-yl]-N-[2,4-bis(methylthio)-6-methyl-3-pyridyl]acetamide monohydrochloride 0.9-water adduct], the “Powder X-ray” value in [2] (setting [7]) is reported as “high degree of crystallinity”. Further, the TG result in [5] is listed as “No change until”; in data set [5] (setting [7]), “without any substantial weight change”. The Solubility in [1] is recorded as 0.5 mg/mL. In “pH of aqueous solution” (0.05% aq. solution), the “pH of aq. Solution” value was 5.2 (0.05%). In addition, the Hygroscopicity entry in data set [3] is recorded as “None”; in [3] (setting [7]), “no hygroscopicity”. Moreover, the Thermal stability in data set [4] (stored at 80° C. for 10 days) is on record as 99.2%; in data set [4] (stored at 80° C. for 10 days, listed as 2-[4-[2-(benzimidazol-2-ylthio)ethyl]piperazin-1-yl]-N-[2,4-bis(methylthio)-6-me), “excellent in thermal stability”.
As to `CSc1cc(C)nc(SC)c1NC(=O)CN1CCN(CCSc2nc3ccccc3[nH]2)CC1.O.O.O.O.O=S(=O)(O)O` [Monosulfate 4-water adduct, 2-[4-[2-(benzimidazol-2-ylthio)ethyl]piperazin-1-yl]-N-[2,4-bis(methylthio)-6-methyl-3-pyridyl]acetamide monosulfate 4-water adduct], in data set [5], the TG result is listed as “Decreased 10%”. Moreover, the Solubility in data set [1] is given as 5 mg/mL. Further, in “pH of aqueous solution” (0.5% aq. solution), the “pH of aq. Solution” value was 3.2 (0.5%). Also, in [3], the Hygroscopicity entry is recorded as “None”. The molecule also registered a Thermal stability in data set [4] (stored at 80° C. for 10 days) of 99.4%.
Turning to `CSc1cc(C)nc(SC)c1NC(=O)CN1CCN(CCSc2nc3ccccc3[nH]2)CC1.O=S(=O)(O)O` [Monosulfate, 2-[4-[2-(benzimidazol-2-ylthio)ethyl]piperazin-1-yl]-N-[2,4-bis(methylthio)-6-methyl-3-pyridyl]acetamide monosulfate], in data set [2], the “Powder X-ray” value is given as “Low”. Also, the TG result in data set [5] is “No change until”. Further, in [1], the Solubility was 200 mg/mL. Besides, the “pH of aq. Solution” value in the data set “pH of aqueous solution” (0.5% aq. solution) was 3.2 (0.5%). For the same molecule, the Hygroscopicity in [3] came out at 15%.
As for `CSc1cc(C)nc(SC)c1NC(=O)CN1CCN(CCSc2nc3ccccc3[nH]2)CC1.Cl.Cl.Cl.Cl.O.O` [Tetrahydrochloride 2-water adduct, 2-[4-[2-(benzimidazol-2-ylthio)ethyl]piperazin-1-yl]-N-[2,4-bis(methylthio)-6-methyl-3-pyridyl]acetamide tetrahydrochloride 2-water adduct], the “Powder X-ray” value in [2] is listed as “Low”; in data set [2] (setting [8]), “low degree of crystallinity”. The TG entry in [5] is “Gradual removal”. Also, in data set [1], the Solubility is reported as greater than 1000 mg/mL. The water solubility entry in data set [1] was “substantially improved”. Also, the oral absorption result in “Oral absorption” is “substantially improved”. Besides, the “pH of 1% aq. Solution” value in the data set “pH of aqueous solution” is listed as 1.97. Moreover, the figures for the Hygroscopicity in data set [3] and in data set [3] (setting [8]) were 10% and “high hygroscopicity”, respectively. In [4] (stored at 80° C. for 10 days), this molecule came in with a Thermal stability of 98.5%.
